Data published in US20260242359A1, “IRHOM2 INHIBITORS AND USES THEREOF” (NEW YORK SOCIETY FOR THE RELIEF OF THE RUPTURED AND …, priority 2023, published 2026).
Like-named read-outs stand apart in the source and are kept apart here.

How the values were obtained:
[1] = tested on: PMA-induced release of endogenous HB-EGF from human peripheral blood mononuclear cells (PBMCs); experiment: Example 16: ELISA-based HB-EGF release assay, PMA-induced, PBMCs from healthy donor; format: cell-based; details: 10 μM final concentration, PMA 25 ng/ml, delta Buffer stimulated vs unstimulated = 100% inhibition; for inhibition at 10 µM: Homo sapiens, PBMC
Procedure: (§1) In the following study, ELISA-based HB-EGF release assays were performed to analyze the inhibitory effects of Compounds 1, 2, 3, 4, 5, and 7 on PMA-induced release of endogenous HB-EGF from primary human material obtained from healthy donor using peripheral blood mononuclear cells (PBMCs). The ELISA-based HB-EGF release assay that was used in this example is described below.
(§2) In brief, on day 1, Nunc black MaxiSorp® 96-well plates (Thermo Fisher Scientific, USA) were coated overnight with 100 μl per well of mouse anti-human HB-EGF capture antibody (provided as part of the DuoSet ELISA kit) at 2 μg/ml TBS at 4° C.
(§3) 80,000 PBMCs from healthy donor (SciRhom GmbH, Germany) in 80 μl of normal growth medium were seeded in each well of Greiner CELLSTAR V-bottom 96-well plates (Greiner Bio-One, Germany) and pre-incubated with 20 d per well of standard growth medium supplemented with Batimastat (BB94, Abcam, UK) at 50 μM as positive control (for a final concentration of 10 μM in the resulting 100 μl sample volume), compounds of the invention at 50 μM (for a final concentration of 10 μM in the resulting 100 μl sample volume) and in case of Buffer stimulated and unstimulated controls with DMSO (Carl Roth, Germany) at 50 μM (for a final concentration of 10 μM in the resulting 100 μl sample volume) at 37° C., 5% CO2 for 30 minutes. Subsequently, cells (except those for unstimulated controls) were stimulated with 20 μl per well of PMA (Sigma-Aldrich, USA) at 150 ng/ml in growth medium for a final concentration of 25 ng/ml at 37° C., 5% CO2 for 22 hours.
(§4) On day 2, the capture antibody solution was removed and MaxiSorp® plates were blocked with 300 μl per well of TBS, 1% BSA at room temperature for 1-2 hours. Meanwhile, the 96-well plates were centrifuged to pellet cells. In parallel, blocking buffer was removed from the MaxiSorp® plates and plates were washed 4 times with 350 μl TBS-T (Carl Roth, Germany) per well on a 96-head plate washer (Tecan Group, Switzerland). To avoid drying-up, 30 μl TBS were added to each well of the MaxiSorp® plates immediately, followed by the transfer of 70 μl cell-free supernatant per sample. Additionally, 100 μl recombinant human HB-EGF protein (provided as part of the DuoSet ELISA kit) diluted in TBS at defined concentrations were added to the plate as standard references. Plates were incubated at room temperature for 2 hours. After 4 times washing with 350 μl TBS-T (Carl Roth, Germany) per well on a 96-head plate washer (Tecan Group, Switzerland) and careful removal of all buffer traces after the fourth cycle, 100 μl biotinylated goat anti-human HB-EGF detection antibody (provided as part of the DuoSet ELISA kit) at 50 ng/ml TBS were added per well and, protected from direct light, plates were incubated at room temperature for 2 hours.
(§5) After 4 times washing with 350 μl TBS-T (Carl Roth, Germany) per well on a 96-head plate washer (Tecan Group, Switzerland) and careful removal of all buffer traces after the fourth cycle, 100 μl streptavidin-AP (R&D Systems, USA) diluted 1:10,000 in TBS were added to each well and, again protected from direct light, plates were incubated at room temperature for 30 minutes. Following another round of 4 times washing with 350 μl TBS-T (Carl Roth, Germany) per well on a 96-head plate washer (Tecan Group, Switzerland) and careful removal of all buffer traces after the fourth cycle, 100 μl AttoPhos substrate solution (Promega, USA) per well was added for incubation in the dark at room temperature for 1 hour. Using an infinite M1000 (Tecan Group, Switzerland) microplate reader, the fluorescence of each well was collected at an excitation wavelength of 435 nm and an emission wavelength of 555 nm.
(§6) The delta between Buffer stimulated and Buffer unstimulated was defined 100% inhibition.

[2] = tested on: PMA-induced release of endogenous HB-EGF from human THP-1 macrophage cells; experiment: Example 15: ELISA-based HB-EGF release assay, PMA-induced, THP-1 macrophage cells; format: cell-based; details: read-out: inhibition of PMA-induced release of HB-EGF from THP-1 cells
Procedure: as §1, with “from” for “from primary”, “THP-1 macrophage cells.” for “material obtained from healthy donor using peripheral blood mononuclear cells (PBMCs).”
as §2
as §3, with “40,000 THP-1 cells (American Type Culture Collection, USA) cells in” for “80,000 PBMCs from healthy donor (SciRhom GmbH, Germany) in”, “20 μl” for “20 d”, “for 23” for “for 22”
as §4, §5, §6

[3] = THP-1, 10 μM final concentration, PMA 25 ng/ml, 23 hours, delta Buffer stimulated vs unstimulated = 100% inhibition

Structure (SMILES)	inhibition of PMA-induced release of HB-EGF from PBMCs from healthy donor ([1]; 22 hours) [%]	inhibition at 10 µM ([1]; 22 h) [%]	inhibition at 10 µM [2, 3] [%]	inhibition at 10 µM ([1]; 22 hours) [%]	inhibition at 10 µM ([2]; THP-1, 23 h) [%]
CNC(=O)[C@H](Cc1ccccc1)NC(=O)[C@H](CC(C)C)[C@H](CSc1cccs1)C(=O)NO [Batimastat, reference compound]	107.6	98.5	99.2		
CCC(=O)NCCc1c(/C=C2/C(=O)NC(=O)N(c3ccc(C)cc3C)C2=O)[nH]c2ccccc12 [Compound 1]				101	95.4
CCOC(=O)c1ccc(Nc2nc3nonc3n3nnnc23)cc1 [Compound 2]		100	77.5		
O=C(c1c(Cl)cccc1Cl)N1CCC(Cc2ccc(F)cc2)CC1 [Compound 3]		22.4	29.6		
Cc1c(C(=O)NCc2cccs2)sc(=O)n1Cc1ccccc1 [Compound 4]		38.7	62.5		
Cc1c(C(=O)NCc2cccs2)sc(=O)n1Cc1ccccc1F [Compound 5]		34	55.1		
Cc1c(C(=O)NCc2ccco2)sc(=O)n1Cc1ccccc1F [Compound 7]		107	95.1		
